Test results taken from ChEMBL document CHEMBL1132916, “Total synthesis of pyrrolizidines 223H', 239K', 265H', and 267H' found in Madagascan frogs (Mantella) and their affinities for nicotinic acetylcholine receptor” (Bioorg Med Chem Lett, 2000).

target: Acetylcholine receptor (Torpedo californica, UniProt P02710+P02712+P02714+P02718); experiment: Compound was evaluated for inhibition of [3H]TCP binding to Nicotinic acetylcholine receptor of Torpedo californica; type: protein-complex assay, Tetronarce californica
Sequence (P02710 whole entry): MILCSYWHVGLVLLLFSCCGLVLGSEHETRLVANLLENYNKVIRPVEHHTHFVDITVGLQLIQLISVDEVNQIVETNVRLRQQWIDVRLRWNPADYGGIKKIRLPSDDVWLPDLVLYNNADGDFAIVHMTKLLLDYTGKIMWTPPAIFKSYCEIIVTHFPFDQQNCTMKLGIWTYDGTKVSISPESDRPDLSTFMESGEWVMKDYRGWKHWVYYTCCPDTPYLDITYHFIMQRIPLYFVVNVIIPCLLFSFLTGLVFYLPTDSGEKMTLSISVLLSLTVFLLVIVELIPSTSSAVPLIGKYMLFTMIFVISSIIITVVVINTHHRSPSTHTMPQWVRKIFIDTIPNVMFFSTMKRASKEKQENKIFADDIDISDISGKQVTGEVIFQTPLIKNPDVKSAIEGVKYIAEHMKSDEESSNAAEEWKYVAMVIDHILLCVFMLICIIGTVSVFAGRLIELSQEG
Sequence (P02712 whole entry): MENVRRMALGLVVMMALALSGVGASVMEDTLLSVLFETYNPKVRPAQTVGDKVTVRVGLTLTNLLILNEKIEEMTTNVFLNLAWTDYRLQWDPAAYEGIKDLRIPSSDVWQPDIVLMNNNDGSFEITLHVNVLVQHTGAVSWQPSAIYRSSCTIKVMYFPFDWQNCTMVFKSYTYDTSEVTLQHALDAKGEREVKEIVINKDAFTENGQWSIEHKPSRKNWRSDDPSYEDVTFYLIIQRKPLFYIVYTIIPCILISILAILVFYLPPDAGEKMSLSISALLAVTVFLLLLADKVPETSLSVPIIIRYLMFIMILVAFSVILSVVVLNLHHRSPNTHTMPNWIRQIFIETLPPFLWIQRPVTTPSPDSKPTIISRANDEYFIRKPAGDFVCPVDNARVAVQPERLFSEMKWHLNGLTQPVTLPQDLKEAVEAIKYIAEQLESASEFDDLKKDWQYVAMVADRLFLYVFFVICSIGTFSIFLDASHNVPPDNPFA
Sequence (P02718 whole entry): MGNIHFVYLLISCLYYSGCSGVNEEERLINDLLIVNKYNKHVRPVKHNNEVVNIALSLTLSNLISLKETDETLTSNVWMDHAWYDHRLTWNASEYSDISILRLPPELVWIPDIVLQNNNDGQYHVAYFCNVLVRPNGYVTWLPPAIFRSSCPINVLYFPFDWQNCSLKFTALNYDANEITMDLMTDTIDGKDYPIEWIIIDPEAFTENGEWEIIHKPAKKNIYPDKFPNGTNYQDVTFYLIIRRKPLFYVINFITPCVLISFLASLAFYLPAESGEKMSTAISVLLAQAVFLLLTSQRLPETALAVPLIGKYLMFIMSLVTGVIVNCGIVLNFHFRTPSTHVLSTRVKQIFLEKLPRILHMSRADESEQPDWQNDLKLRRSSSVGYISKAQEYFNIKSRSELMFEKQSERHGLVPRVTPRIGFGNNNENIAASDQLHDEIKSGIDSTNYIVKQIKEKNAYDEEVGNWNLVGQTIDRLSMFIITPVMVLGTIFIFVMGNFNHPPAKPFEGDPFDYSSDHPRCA
Sequence (P02714 whole entry): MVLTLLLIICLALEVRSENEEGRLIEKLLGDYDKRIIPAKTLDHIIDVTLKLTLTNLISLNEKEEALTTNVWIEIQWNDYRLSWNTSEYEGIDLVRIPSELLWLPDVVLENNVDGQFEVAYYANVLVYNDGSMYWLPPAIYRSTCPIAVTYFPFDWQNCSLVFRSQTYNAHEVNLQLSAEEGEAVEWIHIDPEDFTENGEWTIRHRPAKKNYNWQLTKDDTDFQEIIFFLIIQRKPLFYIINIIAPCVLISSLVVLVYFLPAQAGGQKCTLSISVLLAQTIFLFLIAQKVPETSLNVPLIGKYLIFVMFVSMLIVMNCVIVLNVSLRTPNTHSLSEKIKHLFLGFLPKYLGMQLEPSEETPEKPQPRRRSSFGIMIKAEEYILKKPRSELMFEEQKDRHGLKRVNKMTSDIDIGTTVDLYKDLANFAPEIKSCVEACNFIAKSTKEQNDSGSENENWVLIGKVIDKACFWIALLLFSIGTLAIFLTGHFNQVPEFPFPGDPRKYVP

SMILES | Ki
CCCCCCC[C@@H]1CC[C@H]2CC[C@H](C)N12 | 50 µM
C[C@H](O)CCCCC[C@@H]1CC[C@H]2CC[C@H](C)N12 | 3300 µM
CCCC[C@@H]1CCCC2CC[C@@H](CCCC)N21 (stereo partly drawn) | 420 µM
C[C@@H](O)CCCCC[C@@H]1CC[C@H]2CC[C@H](C)N12 | 8300 µM
CCC[C@H]1CC[C@@H]2CC[C@@H](CCCCC[C@@H](C)O)N21 | 3100 µM
CCCC[C@H]1CCCC2CC[C@@H](CCCC)N21 (stereo partly drawn) | 370 µM
CCC[C@H]1CC[C@@H]2CC[C@@H](CCCCC[C@H](C)O)N21 | 3100 µM
CCC[C@H]1CC[C@@H]2CC[C@@H](CCCCCC(C)=O)N21 | 830 µM
